From US11371099B2, “HEATR1 as a marker for chemoresistance” (MAYO FOUNDATION FOR MEDICAL EDUCATION AND RESEARCH, priority 2015, dated 2022)

Legend:
[1] = tested on: Akt; details: cited from earlier work
[2] = tested on: SU86.86, ASPC-1, and PANC-1 cells; test: MTS cell survival assay in pancreatic cancer cells transfected with control or HEATR1 siRNA/shRNA; assay type: cell-based, human; details: HEATR1 siRNA or shRNA vs control
Method: FIG. 1. […] (A) Cells were transfected with indicated siRNA and treated with Gemcitabine. Cell survival was determined. […] (C) SU86.86 cells were transfected with indicated siRNA and treated. Cell survival was determined.
(A) PANC-1 and ASPC-1 cells stably expressing control or HEATR1 shRNA treated with gemcitabine. Cell survival was determined as described in FIG. 1A. The data presented are mean±SD for six independent experiments. […] (B) PANC-1 and ASPC-1 cells were transfected with control or HEATR1 siRNA and then treated with the indicated drugs. Cell survival was determined as described in A. The data presented are mean±SD for six independent experiments.
Human pancreatic cancer cell lines SU86.86, ASPC-1, and PANC-1 were purchased from ATCC in 2014. The identities of these cell lines were confirmed by the medical genome facility at Mayo Clinic Center using short tandem repeat profiling upon receipt. The cell lines were maintained in RPMI 1640 with 10% FBS. HEATR1 cDNA was purchased from Thermo Scientific and full length and mutants were subcloned into pIRES-EGFP. PP2A-Aα, B55α, B56β, Cα were purchased from addgene and subcloned into HA-pcmv and pGex4T-1. HEATR1 siRNA and shRNA were from Dharmacon and Sigma, respectively.
Gemcitabine was from Eli Lilly (Indianapolis, Ind.). Paclitaxel, SN-38, mitomycin c, oxaliplatin and etopside were from Sigma-Aldrich (St. Louis, Mo.). […] Ctrl (Control) or HEATR1 siRNA or shRNA were transfected, and the growth-inhibitory effect was performed as described previously (21). In one embodiment, a MTS assay may be performed by a MTS Cell Proliferation Assay Kit (Colorimetric) (197010); a colorimetric sensitive quantification of viable cells in proliferation and cytotoxicity assays. The assay is based on the reduction of MTS tetrazolium compound by viable cells to generate a colored formazan product that is soluble in cell culture media.

[3] = tested on: SU86.86 cells; test: Apoptosis (cleaved PARP1 western blot) in cells expressing control or HEATR1 shRNA; assay type: cell-based, human; details: control cells vs HEATR1 shRNA cells; 10 μM, 48 hours
Method: (A) SU86.86 cells stably expressing control or HEATR1 shRNA treated with gemcitabine (10 μM). Cell lysate were collect at 48 hours and western blotting was performed with indicated antibodies. (B) Cells stably expressing control or HEATR1 shRNA were seeded in each well (5×10^4/well) and cell numbers were counted every 24 hour. Data are represented as the mean±SD of four independent experiments. We prepared cell lysates, performed immunoprecipitation, and immunoblotting as previously described. In brief, cells were lysed with NETN buffer (20 mM Tris-HCl, pH 8.0, 100 mM NaCl, 1 mM EDTA, 0.5% Nonidet P-40) containing 50 mM b-glycerophosphate, 10 mM NaF, and […] each of pepstatin A and aprotinin. Whole cell lysates were pulse-sonicated and obtained by centrifugation. Whole cell lysates were incubated with 2 μg of antibody and protein A or protein G Sepharose beads (Amersham Biosciences) for 2 hr or overnight at 4° C. The immunocomplexes were then washed with NETN buffer for three times and separated by SDS-PAGE. Immunoblotting was performed following standard procedures. GST fusion proteins were bound to glutathione-Sepharose overnight at 4° C. The beads were washed with PBS four times and incubated with cell lysates for 1 h at 4° C. After washing with NETN for three times, the bound proteins were separated by SDS-PAGE and immunoblotted with indicated antibodies.

[4] = tested on: PANC-1 xenograft tumors; test: Tumor xenograft study, PANC-1 cells stably expressing Ctrl or HEATR1 shRNA; assay type: in vivo, mouse; details: Gemcitabine 50 mg/kg i.p. every 3 days; HEATR1 shRNA vs Ctrl
Method: Xenograft tumors were dissected and tumor weights were measured after mice were sacrificed (C). ANOVA analysis was performed (Mann-Whitney test) +P<0.05, ++P<0.01 (Ctrl vs KD). […] Representative photographs of indicated xenograft tumors were shown in (E). Female athymic nu/nu mice were obtained from the National Cancer Institute. Experiments were performed under the approval of the Institutional Animal Care and Use Committee at Mayo Clinic. PANC-1 cells stably expressing Ctrl and HEATR1 shRNA were injected subcutaneously in mouse flanks (10^6 cells/mouse flank). Tumor volumes were measured every three days. […] After sacrificing the mice, tumors were surgically removed and weighted.

[5] = tested on: pancreatic tumor; details: dinaciclib combined with MK-2206; cited from earlier work
[6] = patients with advanced solid tumors; cited from earlier work
[7] = tested on: Akt; details: cited from earlier work; remark: listed apart in the source
[8] = tested on: Akt phospho-Thr308 and phospho-Ser473; details: in vivo, both sensitive and resistant tumors; cited from earlier work
[9] = tested on: Akt phosphorylation at Thr308; test: Western blot of Akt phosphorylation after serum starvation and serum addition; assay type: cell-based, human; details: SU86.86 cells, pretreated 5 nM
Method: (A) Intracellular co-localization of HEATR1 and AKT were observed by using confocal microscopy in Su86.86, PANC-1 and ASPC-1 cells. (B) Cell lysates were subjected to immunoprecipitation with control IgG or anti-HEATR1 antibodies. The immunoprecipitates were then blotted with indicated antibodies. (C) Cells were transfected with control or HEATR1 siRNA, and the interaction between Akt and PDK1 was examined. (D) SU86.86 Cells transfected with control or HEATR1 siRNA were serum starved for 16 hours (0.1% serum), pretreated with DMSO or okadaic acid (5 nM) and then serum was added. Whole-cell lysates were harvested at indicated time and western blotting was performed with indicated antibodies.
We prepared cell lysates, performed immunoprecipitation, and immunoblotting as previously described. In brief, cells were lysed with NETN buffer (20 mM Tris-HCl, pH 8.0, 100 mM NaCl, 1 mM EDTA, 0.5% Nonidet P-40) containing 50 mM b-glycerophosphate, 10 mM NaF, and […] each of pepstatin A and aprotinin. Whole cell lysates were pulse-sonicated and obtained by centrifugation. Whole cell lysates were incubated with 2 μg of antibody and protein A or protein G Sepharose beads (Amersham Biosciences) for 2 hr or overnight at 4° C. The immunocomplexes were then washed with NETN buffer for three times and separated by SDS-PAGE. Immunoblotting was performed following standard procedures. […]

Question: Which “Phosphorylation of Akt at both Ser-473 and Ser-308” value [1] does the source give for `S=C=NCc1ccccc1` [BITC, Benzyl isothiocyanate] here?
Answer: suppresses

Question: Which “Cell survival / resistance to drug in cells with HEATR1 knockdown versus control” value [2] does the source give for `CC[C@@]1(O)C(=O)OCc2c1cc1n(c2=O)Cc2cc3ccccc3nc2-1` [Camptothecin] here?
Answer: significantly resistant

Question: Which “Apoptosis activity induced by drug” value [3] does the source give for `Nc1ccn([C@@H]2O[C@H](CO)[C@@H](O)C2(F)F)c(=O)n1` [Gemcitabine] here?
Answer: stronger apoptosis activity in control cells

Question: And the “Tumor response to drug in xenografts with HEATR1 downregulation” value [4]?
Answer: resistance to Gemcitabine

Question: And the “Cell survival / resistance to drug in cells with HEATR1 knockdown versus control” value [2]?
Answer: increased resistance

Question: For `NC1(c2ccc(-c3nc4ccn5c(=O)[nH]nc5c4cc3-c3ccccc3)cc2)CCC1` [MK-2206], which “Pancreatic tumor growth and metastases” value [5] is on record?
Answer: dramatically block

Question: And the Tolerability [6]?
Answer: well tolerated

Question: With `CCCCCCCCCCCCc1ccc(S(=O)(=O)Nc2nncs2)cc1` [PHT-427] as the compound, how does the “Akt activity in resistant cancer cells” value [7] read?
Answer: increase in Akt activity

Question: What about the “Akt phospho-Thr308 and phospho-Ser473 in tumors” value [8] of the same compound?
Answer: decreased

Question: For `CCc1c2c(nc3ccc(O)cc13)-c1cc3c(c(=O)n1C2)COC(=O)[C@]3(O)CC` [SN-38], which “Cell survival / resistance to drug in cells with HEATR1 knockdown versus control” value [2] is on record?
Answer: significantly resistant

Question: With `COc1cc([C@@H]2c3cc4c(cc3[C@@H](O[C@@H]3O[C@@H]5CO[C@@H](C)O[C@H]5[C@H](O)[C@H]3O)[C@H]3COC(=O)[C@H]23)OCO4)cc(OC)c1O` [etopside] as the compound, how does the “Cell survival / resistance to drug in cells with HEATR1 knockdown versus control” value [2] read?
Answer: significantly resistant

Question: For `CO[C@@]12[C@H](COC(N)=O)C3=C(C(=O)C(C)=C(N)C3=O)N1C[C@@H]1N[C@@H]12` [mitomycin c], which “Cell survival / resistance to drug in cells with HEATR1 knockdown versus control” value [2] is on record?
Answer: significantly resistant

Question: Which “Akt phosphorylation at Thr308” value [9] does the source give for `C=C1[C@@H](O)[C@@H]2O[C@]3(CC[C@H](/C=C/[C@@H](C)[C@@H]4CC(C)=C[C@@]5(O[C@H](C[C@@](C)(O)C(=O)O)CC[C@H]5O)O4)O3)CC[C@H]2O[C@@H]1[C@@H](O)C[C@H](C)[C@H]1O[C@@]2(CCCCO2)CC[C@H]1C` [okadaic acid] here?
Answer: significantly increased

Question: For `O=C1[O][Pt]2([NH][C@@H]3CCCC[C@H]3[NH]2)[O]C1=O` [oxaliplatin], which “Cell survival / resistance to drug in cells with HEATR1 knockdown versus control” value [2] is on record?
Answer: significantly resistant

Question: With `CC(=O)O[C@H]1C(=O)[C@@]2(C)[C@H]([C@H](OC(=O)c3ccccc3)[C@]3(O)C[C@H](OC(=O)[C@H](O)[C@@H](NC(=O)c4ccccc4)c4ccccc4)C(C)=C1C3(C)C)[C@]1(OC(C)=O)CO[C@@H]1C[C@@H]2O` [paclitaxel] as the compound, how does the “Cell survival / resistance to drug in cells with HEATR1 knockdown versus control” value [2] read?
Answer: significantly resistant
